Where a name gives a salt, the structure may show the parent alone. Read-outs that look alike come from different tables or passages of the source. Square brackets hold non-standard residues; d marks the D form. Peptide text beside a SMILES is read from it. * marks the point of attachment. Boc = CC(C)(C)OC(=O)*; Aib = CC(C)(N)C(=O)O; OcHex = C1CCC(O*)CC1; OBn = c1ccc(CO*)cc1; OtBu = CC(C)(C)O*; tBu = CC(C)(C)*; OAll = C=CCO*
What was measured:
[1] = standing 24 hours or more
Description: Peptide samples were screened for crystal stability in several organic solvents. […] The following organic solvents were used for the study: Acetone, ACN, MeOH, EtOH, IPA, BuOH, EtOAc, MTBE, THF, MEK, toluene, and water.
30 mg samples of each peptide tetramer were dispensed into sample vials using an automated dispenser (one vial of each peptide for testing with each solvent). […] Samples were then allowed to stand for 24 hours or more.

[2] = Physical stability of crystalline solid form on isolation/drying (XRPD); format: physicochemical; conditions: for physical stability of the crystalline form: during isolation or upon air-drying/drying
[3] = Dynamic vapor sorption (DVS) analysis of hygroscopicity; format: physicochemical
Text: Crystallization of Y-Aib-E-G helps to reject impurities from the crude material. […] Crystallization of the crude Y-Aib-E-G spiked with 1% dimer (impurity) yielded a crystalline Y-Aib-E-G with almost complete rejection of the dimer. Crystallization also improves physical properties, for example, the hygroscopicity.

Structure (SMILES) | Crystal Formed ([1]; solvent ACN) | Crystal Formed ([1]; solvent Acetone) | Crystal Formed ([1]; solvent BuOH) | Crystal Formed ([1]; solvent EtOAc) | Crystal Formed ([1]; solvent EtOH) | Crystal Formed ([1]; solvent H2O) | Crystal Formed ([1]; solvent IPA) | Crystal Formed ([1]; solvent MEK) | Crystal Formed ([1]; solvent MTBE) | Crystal Formed ([1]; solvent MeOH) | Crystal Formed ([1]; solvent THF) | Crystal Formed ([1]; solvent toluene) | physical stability of the crystalline form after vacuum drying ([2]; vacuum drying at 32-33° C. for 1 day) | wt % gain in sorption from 0% to 95% RH [3] | physical stability of the crystalline form [2]
C=CCOC(=O)CCC(NC(=O)C(C)(C)NC(=O)C(Cc1ccc(OC(C)(C)C)cc1)NC(=O)OC(C)(C)C)C(=O)NCC(=O)O (stereo not drawn) [Boc—Y(tBu)-Aib-E(All)-G-COOH, Boc-Y(tBu)-Aib-E(All)-G-COOH] (Boc-Y(tBu)[Aib]E(OAll)G-OH; configuration not given here) | No | No | No | Yes | No | No | No | Yes | Yes | No | No | No |  |  | 
CC(C)(C)OC(=O)NC(Cc1ccc(OC(C)(C)C)cc1)C(=O)NC(C)(C)C(=O)NC(CCC(=O)OC1CCCCC1)C(=O)NCC(=O)O (stereo not drawn) [Boc—Y(tBu)-Aib-E(cHx)-G-COOH, Boc-Y(tBu)-Aib-E(cHx)-G-COOH] (Boc-Y(tBu)[Aib]E(OcHex)G-OH; configuration not given here) | No | No | No | No | No | No | No | No | No | No | No | No |  |  | 
CC(C)(C)OC[C@H](NC(=O)[C@H](COC(C)(C)C)NC(=O)[C@@H]1CCCN1C(=O)CN)C(=O)NCC(N)=O [G-P-S-S-G-NH2 Form A, Gly-Pro-Ser(tBu)-Ser(tBu)-Gly-NH2] (H-GPS(tBu)S(tBu)G-NH2) |  |  |  |  |  |  |  |  |  |  |  |  |  |  | physically is not stable and converts to Form B easily
CC(C)(C)OC(=O)NC(Cc1cn(-c2ccc([N+](=O)[O-])cc2[N+](=O)[O-])cn1)C(=O)NC(C)(C)C(=O)NC(CCC(=O)NC(c1ccccc1)(c1ccccc1)c1ccccc1)C(=O)NCC(=O)O (stereo not drawn) [H(DNP)-Aib-Q-G Form A, (Boc)-His(dnp)-Aib-Gln(trt)-Gly] |  |  |  |  |  |  |  |  |  |  |  |  |  |  | converts to H(DNP)-Aib-Q-G Form C easily
C[C@H](N)C(=O)N1CCC[C@H]1C(=O)N1CCC[C@H]1C(=O)N1CCC[C@H]1C(=O)N[C@@H](COC(C)(C)C)C(N)=O [H-A-P-P-P-S-NH2 HCl Form A, H-Ala-Pro-Pro-Pro-Ser(tBu)-NH2] (H-APPPS(tBu)-NH2) |  |  |  |  |  |  |  |  |  |  |  |  |  |  | loses crystallinity upon isolation/drying

The next lines start with results.

Crystal Formed ([1]; solvent ACN) | Crystal Formed ([1]; solvent Acetone) | Crystal Formed ([1]; solvent BuOH) | Crystal Formed ([1]; solvent EtOAc) | Crystal Formed ([1]; solvent EtOH) | Crystal Formed ([1]; solvent H2O) | Crystal Formed ([1]; solvent IPA) | Crystal Formed ([1]; solvent MEK) | Crystal Formed ([1]; solvent MTBE) | Crystal Formed ([1]; solvent MeOH) | Crystal Formed ([1]; solvent THF) | Crystal Formed ([1]; solvent toluene) | physical stability of the crystalline form after vacuum drying ([2]; vacuum drying at 32-33° C. for 1 day) | wt % gain in sorption from 0% to 95% RH [3] | Structure (SMILES) | physical stability of the crystalline form [2]
Yes | Yes | No | Yes | No | No | No | Yes | Yes | No | Yes | Yes |  |  | CC(C)(C)OC(=O)N[C@@H](Cc1ccc(OC(C)(C)C)cc1)C(=O)NC(C)(C)C(=O)N[C@@H](CCC(=O)OCc1ccccc1)C(=O)NCC(=O)O [Boc—Y(tBu)-Aib-E(Bzl)-G-COOH, Boc-Y(tBu)-Aib-E(Bzl)-G-COOH] (Boc-Y(tBu)[Aib]E(OBn)G-OH) | 
No | No | No | No | No | No | No | No | Yes | No | No | No |  |  | COC(=O)CCC(NC(=O)C(C)(C)NC(=O)C(Cc1ccc(OC(C)(C)C)cc1)NC(=O)OC(C)(C)C)C(=O)NCC(=O)O (stereo not drawn) [Boc—Y(tBu)-Aib-E(Me)-G-COOH, Boc-Y(tBu)-Aib-E(Me)-G-COOH] (Boc-Y(tBu)[Aib]E(OMe)G-OH; configuration not given here) | 
 |  |  |  |  |  |  |  |  |  |  |  | remained as Form B |  | CC(C)(C)OC[C@H](NC(=O)[C@H](COC(C)(C)C)NC(=O)[C@@H]1CCCN1C(=O)CN)C(=O)NCC(N)=O [G-P-S-S-G-NH2 Form B, Gly-Pro-Ser(tBu)-Ser(tBu)-Gly-NH2] (H-GPS(tBu)S(tBu)G-NH2) | 
 |  |  |  |  |  |  |  |  |  |  |  |  | 1.4 wt % | CC(C)(C)OC(=O)CC[C@H](NC(=O)C(C)(C)NC(=O)[C@H](Cc1ccc(OC(C)(C)C)cc1)NC(=O)OC(C)(C)C)C(=O)NCC(=O)O [Y-Aib-E-G Form B, Boc-l-Tyr (tBu)-Aib-Glu(OtBu)-Gly-OH] (Boc-Y(tBu)[Aib]E(OtBu)G-OH) | 
 |  |  |  |  |  |  |  |  |  |  |  |  | 4.1 wt % | CC(C)(C)OC(=O)CC[C@H](NC(=O)C(C)(C)NC(=O)[C@H](Cc1ccc(OC(C)(C)C)cc1)NC(=O)OC(C)(C)C)C(=O)NCC(=O)O [amorphous Y-Aib-E-G, Boc-l-Tyr (tBu)-Aib-Glu(OtBu)-Gly-OH] (Boc-Y(tBu)[Aib]E(OtBu)G-OH) | 
